Results on 22 molecules are retold here after patent US20120309796A1, “BENZOCYCLOHEPTENE ACETIC ACIDS” (priority 2011, published 2012).

The assay deals with T1, human CRTH2 (Homo sapiens, UniProt Q9Y5Y4).
T1 sequence (Q9Y5Y4 1-395): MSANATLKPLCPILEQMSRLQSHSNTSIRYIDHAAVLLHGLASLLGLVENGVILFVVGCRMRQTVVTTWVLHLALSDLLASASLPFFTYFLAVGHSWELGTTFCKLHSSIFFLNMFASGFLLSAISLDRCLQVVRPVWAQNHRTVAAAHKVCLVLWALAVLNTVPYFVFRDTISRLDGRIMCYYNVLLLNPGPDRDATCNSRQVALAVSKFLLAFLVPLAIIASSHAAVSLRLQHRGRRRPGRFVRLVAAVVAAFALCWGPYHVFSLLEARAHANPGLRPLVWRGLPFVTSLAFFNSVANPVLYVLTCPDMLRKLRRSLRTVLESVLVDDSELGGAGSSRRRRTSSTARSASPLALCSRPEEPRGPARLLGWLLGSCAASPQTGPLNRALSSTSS
As to the kind of experiment: Human CRTH2 Receptor Binding Assay (whole cell, [3H]ramatroban competition). Details: two mammalian expression vectors that harbored human CRTH2 and G-alpha16 cDNAs; expressed in transfected cells. The settings on record: CHO-K1 cells expressing human CRTH2 and G-alpha16; 20 nM [3H]ramatroban; 1 hour, room temperature. The source says:
A whole cell receptor binding assay using [^3H]ramatroban as the competing radioactive ligand was employed to evaluate the compound binding activity to human CRTH2. The radioactive ligand [^3H]ramatroban was synthesized according to Sugimoto et. al. (Eur. J. Pharmacol. 2005, 524, 30-37) to a specific activity of 42 Ci/mmol
A cell line stably expressing human CRTH2 was established by transfecting CHO-K1 cells with two mammalian expression vectors that harbored human CRTH2 and G-alpha16 cDNAs, respectively, using FuGene® 6 transfection reagent (from Roche). Stable clones expressing CRTH2 were selected by staining each clone with BM16 (BD Pharmingen™ from BD Biosciences, a division of Becton, Dickinson and Company), which is a rat monoclonal antibody to human CRTH2. The cells were maintained as monolayer cultures in Ham's F-12 medium containing 10% fetal bovine serum, 100 units/mL penicillin, 100 μg/mL streptomycin, 2 mM glutamine, 0.5 mg/mL G418 (geneticin) for CRTH2, and 0.2 mg/mL hygromycin-B (for G-alpha 16). For whole cell receptor binding assay, the monolayer cells were rinsed once with PBS (phosphate buffered saline), dissociated using ethylenediaminetetraacetate (Versene™ EDTA from Lonza Inc.), and suspended in PBS containing 10 mM MgCl2 and 0.06% BSA (bovine serum albumin) at 1.5×10^6 cells/mL.
The binding reactions (0.2 mL) were performed in 96-well plates at room temperature in PBS containing 1.5×10^5 cells, 10 mM MgCl2, 0.06% BSA, 20 nM [^3H]ramatroban, and test compound at various concentrations. After 1 hour of binding reactions, the cells were harvested on GF™/B filter microplates (microtiter plates with embedded glass fiber from PerkinElmer, Inc.) and washed 5 times with PBS using a Filtermate™ Harvester (a cell harvester that harvests and washes cells from microplates from PerkinElmer, Inc.). The radioactivities bound to the cells were determined using a microplate scintillation counter (TopCount® NXT, from PerkinElmer, Inc.) after adding 50 μL of Microscint™ 20 scintillation fluid (from PerkinElmer, Inc.) to each well of the filter plates. The radioactivity from non-specific binding was determined by replacing compound with 10 μM of 15(R)-15-methyl PGD2 (from Cayman Chemical Company) in the reaction mixtures. The radioactivity bound to the cells in the absence of compound (total binding) was determined by replacing compound with 0.25% of DMSO (dimethyl sulfoxide) in the reaction mixture. Specific binding data were obtained by subtracting the radioactivity of non-specific binding from each binding data.
The IC50 value is defined as the concentration of the tested compound that is required for 50% inhibition of total specific binding. In order to calculate the IC50 value, the percent inhibition data were determined for 7 concentrations for each compound. The percent inhibition for a compound at each concentration was calculated according to the following formula, [1-(specific binding in the presence of compound)/(total specific binding)]×100. The IC50 value was then obtained by fitting the percent inhibition data to a sigmoidal dose-response (4 parameter logistic) model in the XLfit® software Excel add-in program [from ID Business Solutions Ltd., model 205, where F(x)=(A+(B−A)/(1+((C/x)̂D)))].

As to `Cc1ccc(-c2cccc(S(=O)(=O)NC3CCCCc4c(OCC(=O)O)cccc43)c2)cc1` (stereo not shown) [Example 39, [5-(4′-Methyl-biphenyl-3-sulfonylamino)-6,7,8,9-tetrahydro-5H-benzocyclohepten-1-yloxy]-acetic acid], the IC50 – broadly, the concentration that gives 50% inhibition – was 514 nM. Then `Cc1cc(-c2ccc(S(=O)(=O)N(C)C3CCCCc4c(OCC(=O)O)cccc43)cc2)cc(C(C)(C)C)c1` (stereo not shown) [Example 22, {5-[(3′-tert-Butyl-5′-methyl-biphenyl-4-sulfonyl)-methyl-amino]-6,7,8,9-tetrahydro-5H-benzocyclohepten-1-yloxy}-acetic acid], with 189 nM; and `CN(C1CCCCc2c(OCC(=O)O)cccc21)S(=O)(=O)c1ccc(-c2ccccc2)cc1` (stereo not shown) [Example 12, {5-[(Biphenyl-4-sulfonyl)-methyl-amino]-6,7,8,9-tetrahydro-5H-benzocyclohepten-1-yloxy}-acetic acid], with 750 nM; and `CN(C1CCCCc2c(OCC(=O)O)cccc21)S(=O)(=O)c1cc(S(C)(=O)=O)cc(S(C)(=O)=O)c1` (stereo not shown) [Example 11, {5-[(3,5-Bis-methanesulfonyl-benzenesulfonyl)-methyl-amino]-6,7,8,9-tetrahydro-5H-benzocyclohepten-1-yloxy}-acetic acid], with 33.4 nM. Then `CC(=O)c1cc(C(F)(F)F)cc(S(=O)(=O)N(C)C2CCCCc3c(OCC(=O)O)cccc32)c1` (stereo not shown) [Example 16, {5-[(3-Acetyl-5-trifluoromethyl-benzenesulfonyl)-methyl-amino]-6,7,8,9-tetrahydro-5H-benzocyclohepten-1-yloxy}-acetic acid], with 5.9 nM; and `CC(C)c1cc(C(F)(F)F)cc(S(=O)(=O)NC2CCCCc3c(OCC(=O)O)cccc32)c1` (stereo not shown) [Example 43, [5-(3-Isopropyl-5-trifluoromethyl-benzenesulfonylamino)-6,7,8,9-tetrahydro-5H-benzocyclohepten-1-yloxy]-acetic acid], with 298 nM. Molecule `CN(C1CCCCc2c(OCC(=O)O)cccc21)S(=O)(=O)c1ccc(-c2cccc(S(C)(=O)=O)c2)cc1` (stereo not shown) [Example 30, {5-[(3′-Methanesulfonyl-biphenyl-4-sulfonyl)-methyl-amino]-6,7,8,9-tetrahydro-5H-benzocyclohepten-1-yloxy}-acetic acid] returned a half-inhibitory concentration (IC50) of 189 nM. The value for `CN(C1CCCCc2c(OCC(=O)O)cccc21)S(=O)(=O)c1cc(F)cc(C(F)(F)F)c1` (stereo not shown) [Example 7, {5-[(3-Fluoro-5-trifluoromethyl-benzenesulfonyl)-methyl-amino]-6,7,8,9-tetrahydro-5H-benzocyclohepten-1-yloxy}-acetic acid] was 64.6 nM; that for `O=C(O)COc1cccc2c1CCCCC2NS(=O)(=O)c1cc(C(F)(F)F)cc(C(F)(F)F)c1` (single isomer, unassigned) [Example 45, [5-(3,5-Bis-trifluoromethyl-benzenesulfonylamino)-6,7,8,9-tetrahydro-5H-benzocyclohepten-1-yloxy]-acetic acid] was 1490 nM; that for `COc1cc(C(F)(F)F)cc(S(=O)(=O)N(C)C2CCCCc3c(OCC(=O)O)cccc32)c1` (stereo not shown) [Example 14, {5-[(3-Methoxy-5-trifluoromethyl-benzenesulfonyl)-methyl-amino]-6,7,8,9-tetrahydro-5H-benzocyclohepten-1-yloxy}-acetic acid] was 106 nM. The value for `Cc1ccc(-c2cccc(S(=O)(=O)N(C)C3CCCCc4c(OCC(=O)O)cccc43)c2)cc1` (stereo not shown) [Example 40, {5-[Methyl-(4′-methyl-biphenyl-3-sulfonyl)-amino]-6,7,8,9-tetrahydro-5H-benzocyclohepten-1-yloxy}-acetic acid] was 555 nM; that for `O=C(O)COc1cccc2c1CCCCC2NS(=O)(=O)c1cc(F)cc(C(F)(F)F)c1` (stereo not shown) [Example 6, [5-(3-Fluoro-5-trifluoromethyl-benzenesulfonylamino)-6,7,8,9-tetrahydro-5H-benzocyclohepten-1-yloxy]-acetic acid] was 171 nM. The value for `CC(C)c1cc(C(F)(F)F)cc(S(=O)(=O)N(C)C2CCCCc3c(OCC(=O)O)cccc32)c1` (stereo not shown) [Example 44, {5-[(3-Isopropyl-5-trifluoromethyl-benzenesulfonyl)-methyl-amino]-6,7,8,9-tetrahydro-5H-benzocyclohepten-1-yloxy}-acetic acid] was 199 nM. Take `CN(C1CCCCc2c(OCC(=O)O)cccc21)S(=O)(=O)c1ccc(-c2ccc(O)cc2)cc1` (stereo not shown) [Example 24, {5-[(4′-Hydroxy-biphenyl-4-sulfonyl)-methyl-amino]-6,7,8,9-tetrahydro-5H-benzocyclohepten-1-yloxy}-acetic acid]: the half-inhibitory concentration (IC50) stood at 987 nM. The value for `CC(C)c1cccc(-c2ccc(S(=O)(=O)N(C)C3CCCCc4c(OCC(=O)O)cccc43)nc2)c1` (stereo not shown) [Example 32, (5-{[5-(3-Isopropyl-phenyl)-pyridine-2-sulfonyl]-methyl-amino}-6,7,8,9-tetrahydro-5H-benzocyclohepten-1-yloxy)-acetic acid] was 123 nM; that for `COc1cc(C(F)(F)F)cc(S(=O)(=O)NC2CCCCc3c(OCC(=O)O)cccc32)c1` (stereo not shown) [Example 13, [5-(3-Methoxy-5-trifluoromethyl-benzenesulfonylamino)-6,7,8,9-tetrahydro-5H-benzocyclohepten-1-yloxy]-acetic acid] was 158 nM. Then `CN(C1CCCCc2c(OCC(=O)O)cccc21)S(=O)(=O)c1cc(C(F)(F)F)cc(S(C)(=O)=O)c1` (stereo not shown) [Example 18, {5-[(3-Methanesulfonyl-5-trifluoromethyl-benzenesulfonyl)-methyl-amino]-6,7,8,9-tetrahydro-5H-benzocyclohepten-1-yloxy}-acetic acid], with 11.4 nM; and `CSc1cccc(-c2ccc(S(=O)(=O)NC3CCCCc4c(OCC(=O)O)cccc43)cc2)c1` (stereo not shown) [Example 27, [5-(3′-Methylsulfanyl-biphenyl-4-sulfonylamino)-6,7,8,9-tetrahydro-5H-benzocyclohepten-1-yloxy]-acetic acid], with 24.3 nM; and `CC(=O)c1cc(C(F)(F)F)cc(S(=O)(=O)NC2CCCCc3c(OCC(=O)O)cccc32)c1` (stereo not shown) [Example 15, [5-(3-Acetyl-5-trifluoromethyl-benzenesulfonylamino)-6,7,8,9-tetrahydro-5H-benzocyclohepten-1-yloxy]-acetic acid], with 3.3 nM.

Turning to `Cc1cc(-c2ccc(S(=O)(=O)NC3CCCCc4c(OCC(=O)O)cccc43)cc2)cc(C(C)(C)C)c1` (stereo not shown) [Example 21, [5-(3′-tert-Butyl-5′-methyl-biphenyl-4-sulfonylamino)-6,7,8,9-tetrahydro-5H-benzocyclohepten-1-yloxy]-acetic acid], the half-maximal inhibitory concentration (IC50) was determined as 34.7 nM. Then `CC(C)c1cccc(-c2ccc(S(=O)(=O)NC3CCCCc4c(OCC(=O)O)cccc43)cc2)c1` (stereo not shown) [Example 19, [5-(3′-Isopropyl-biphenyl-4-sulfonylamino)-6,7,8,9-tetrahydro-5H-benzocyclohepten-1-yloxy]-acetic acid], with 13 nM; and `O=C(O)COc1cccc2c1CCCCC2NS(=O)(=O)c1cccc(-c2ccccc2)c1` (stereo not shown) [Example 3, [5-(Biphenyl-3-sulfonylamino)-6,7,8,9-tetrahydro-5H-benzocyclohepten-1-yloxy]-acetic acid], with 2610 nM.
